Test results as given in US20220041538A1, “CA[…] ACID AND SALTS THEREOF” (EMERALD HEALTH PHARMACEUTICALS INC, priority 2018, published 2022).
Entries after “also recorded” stand apart in the source; their conditions may differ. Like-named read-outs stand apart in the source and are kept apart here.

Legend:
[1] = target: T1, PPARγ (Homo sapiens, UniProt P37231); assay: PolarScreen PPAR Competitor Assay (PPARγ binding, fluorescence polarization)
T1 sequence (P37231 238-505 limits assumed): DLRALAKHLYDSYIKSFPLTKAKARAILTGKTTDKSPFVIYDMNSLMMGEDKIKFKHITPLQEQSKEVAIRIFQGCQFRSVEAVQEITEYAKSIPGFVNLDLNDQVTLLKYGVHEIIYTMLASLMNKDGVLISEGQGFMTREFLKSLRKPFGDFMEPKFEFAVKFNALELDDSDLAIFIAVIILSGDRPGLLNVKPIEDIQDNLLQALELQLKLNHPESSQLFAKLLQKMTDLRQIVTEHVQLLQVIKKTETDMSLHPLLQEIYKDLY
Protocol: PPARγ binding activity was determined by using PolarScreen™ PPAR Competitor Assay kit (Life Technologies), according to the manufacturer's specifications. The PolarScreen™ PPAR Competitor Assay is a binding assay for determining IC50 values of compounds that bind to PPARγ.
Concentration of the compound of formula I and salts of formula II resulting in a half maximal shifts in polarization value determines the IC50.

[2] = system: 3NP-intoxicated mice; assay: 3NP murine model of Huntington's disease, behavioral score; format: in vivo; settings: oral and intraperitoneal; I 10 mg/Kg both routes; sodium salt 30 mg/Kg oral, 10 mg/Kg i.p.
Protocol: Mice were subjected to behavioral tests for determining their neurological status after the treatment with oral cannabigerol quinone acid (I) (10 mg/Kg dissolved in sesame oil) and after intraperitoneal delivery (10 mg/Kg dissolved in ethanol/cremophor/saline). Hind limb clasping, Locomotor activity, and kyphosis were rated from 0 to 2 based on severity: a score of 0 typically indicates normal function and 2 seriously affected.
Mice were subjected to behavioral tests for determining their neurological status after the treatment with oral sodium salt of the cannabigerol quinone acid (30 mg/Kg dissolved saline) and after intraperitoneal delivery (10 mg/Kg dissolved in saline). Hind limb clasping, Locomotor activity, and kyphosis were rated from 0 to 2 based on severity: a score of 0 typically indicates normal function and 2 seriously affected. […]
Lesions of the striatum were induced with 3-NP in adult (16-week-old; 30 g) male C57BL/6 mice (Harlan Ibérica, Barcelona, Spain). […] We evaluated the general locomotor activity, the hindlimb clasping and dystonia, and the truncal dystonia. […]

[3] = system: striatum of 3NP-intoxicated mice; assay: Histological analysis of striatum in 3NP model (Nissl staining, Iba-1 immunostaining); format: in vivo; settings: oral and intraperitoneal
From the text: Loss of neurons in the striatum (Nissl staining) and Iba1 (microglia marker) were detected by immunostaining in the coronal sections of striatum of mice treated with vehicle, 3NP+ vehicle, 3NP+ compound I (oral and intraperitoneal). Quantification of Nissl staining (A) and Iba1 (B) positive cells in the mouse striatum. Total average number of neurons and microglia is shown.
Quantification of Nissl staining (A) and Iba1 (B) positive cells in the mouse striatum. Total average number of neurons and microglia is shown.
Brains from 3NP model were fixed in 4% paraformaldehyde and 5-μm-thick sections for Nissl staining and immunohistochemical analysis of Iba-1, a marker of microglial cells. For immunohistochemistry sections were incubated overnight at 4° C. with monoclonal anti-mouse Iba-1 antibody (Millipore, Mass., USA) used at 1/50 dilution. After incubation with the corresponding primary antibody, sections were washed in 0.1 M PBS and incubated O/N at 4° C. with goat anti-mouse (Millipore, Mass., USA) secondary antibody. […] Negative control sections were obtained using the same protocol with omission of the primary antibody. All sections for each immunohistochemical procedure were processed at the same time and under the same conditions. […]

[4] = system: 6-OHDA challenged mice; assay: 6-OHDA murine model of Parkinson's disease (pole test, cylinder rearing test); format: in vivo; settings: oral or intraperitoneal, 14 days
Protocol: C57BL/6 mice were unilaterally injected intracerebroventricullarly with 6-hydroxydopamine (6-OHDA) or saline (control mice) and subjected to chronic intraperitoneal treatment with cannabigerol quinone acid (1) (oral […] in sesame oil, and intraperitoneal 10 mg/Kg in Tween80/Saline ( 1/16)) or vehicle (14 days), starting 16 h after the 6-OHDA injection. SHAM group corresponds to mice subjected to the surgical manipulation without injection of 6-OHDA. Motor coordination was evaluated by rotarod performance and motor activity was evaluated using a computer-aided actimeter. A: pole test results after oral treatment, B: cylinder rearing test results after oral treatment, C: pole test results after intraperitoneal treatment, D: cylinder rearing test results after intraperitoneal treatment.
Motor coordination was evaluated by rotarod performance and motor activity was evaluated using a computer-aided actimeter. A: pole test results after oral treatment, B: cylinder rearing test results after oral treatment, C: pole test results after intraperitoneal treatment, D: cylinder rearing test results after intraperitoneal treatment.
C57BL/6 mice pretreated intracerebroventricularly were anesthetized with an intraperitoneal injection of 200 mg/Kg of 2,2,2-tribromoethanol (Sigma-Aldrich) and placed in a stereotaxic frame with a mouse adapter (David Kopf Instruments, Tujunga, Calif., USA). […]
The pole test was used to detect bradykinesia and motor and cylinder rearing test to evaluate sensory-motor deficits in PD mice. For Pole test mice were placed head-upward on the top of a vertical rough-surfaced pole (diameter 8 mm; height 55 cm) and the time until animals descended to the floor was recorded with a maximum duration of 90 s. […] For Cylinder Rearing Test (CRT) the initial forepaw (left, right, or both) preference after placing the mouse in a methacrylate transparent cylinder of 15.5 cm in diameter and 12.7 cm in height was measured. […]

[5] = system: TNFα; assay: Real-time quantitative PCR of striatum, 3NP model, TNFα; settings: 3NP mice vs 3NP+Vehicle; I 10 mg/kg oral and i.p.; IIe 30 mg/kg oral, 10 mg/Kg i.p.
Protocol: (§1) Expression levels were calculated using the 2^−ΔΔCt method. Values are expressed as means±SEM for 3 animals per group.
(§2) Total RNA was isolated from striata (3NP model) using RNeasy Lipid Tissue Mini Kit (Qiagen, GmbH). The total amount of RNA extracted was quantitated by spectrometry at 260 nm and its purity from the ratio between the absorbance values at 260 and 280 nm. Genomic DNA was removed to eliminate DNA contamination. Single-stranded complementary DNA was synthesized from up to 1 μg of total RNA (pool from at least 3 animals per group) using iScript™ cDNA Synthesis Kit (Bio-Rad, Hercules, Calif., USA). The reaction mixture was kept frozen at −20° C. until enzymatic amplification. The iQ™ SYBR Green Supermix (Bio-Rad) was used to quantify mRNA levels for TNF-α and IL-6. Real-time PCR was performed using a CFX96 Real-Time PCR Detection System (Bio-Rad). The GAPDH housekeeping gene was used to standardize the mRNA expression levels in every sample. Expression levels were calculated using the 2^−ΔΔCt method.

[6] = system: IL-6; assay: Real-time quantitative PCR of striatum, 3NP model, IL-6; settings: 3NP mice vs 3NP+Vehicle; I 10 mg/kg oral and i.p.; IIe 30 mg/kg oral, 10 mg/Kg i.p.
Protocol: as §1, §2

[7] = system: Nrf2; settings: cited from earlier work

Row | SMILES | Remaining fluorescence polarization (%) ([1]; compound concentration 0.01 ∝M) | Remaining fluorescence polarization (%) ([1]; compound concentration 0.05 ∝M) | Remaining fluorescence polarization (%) ([1]; compound concentration 0.1 ∝M) | Remaining fluorescence polarization (%) ([1]; compound concentration 0.5 ∝M) | Remaining fluorescence polarization (%) ([1]; compound concentration 1 ∝M) | Remaining fluorescence polarization (%) ([1]; compound concentration 5 ∝M) | Remaining fluorescence polarization (%) ([1]; compound concentration 10 ∝M) | Remaining fluorescence polarization (%) ([1]; compound concentration 25 ∝M) | Remaining fluorescence polarization (%) ([1]; compound concentration 50 ∝M) | clinical symptoms induced by 3-NP intoxication (behavioral score: hind limb clasping, locomotor activity, kyphosis) [2] | reactive microgliosis (Iba-1+ cells) [3] | striatal neurons (Nissl staining) against 3NP toxicity [3] | bradykinesia (pole test) [4] | clinical symptoms in 6-OH-DA challenged mice [4] | motor deficit (cylinder rearing test) [4] | gene expression of TNFα in striatum [5] | gene expression of IL-6 in striatum [6] | Nrf2 activation (electrophilic activity) [7] | Nrf2 activation (electrophilic activity) ([7]; listed as CBG-Q)
1 | CCCCCC1=C(C(=O)O)C(=O)C(C/C=C(\C)CCC=C(C)C)=C(O)C1=O [I, cannabigerol quinone acid] | 97.8 | 97.3 | 87.3 | 78.2 | 53.3 | 20.7 | 16.5 | 24.4 | 34.4 | clearly alleviates the clinical symptoms | prevented the induction of reactive microgliosis | preservation of striatal neurons | attenuated | alleviates clinical symptoms | attenuated | down regulated; also recorded: attenuated the up-regulation | down regulated; also recorded: attenuated the up-regulation | – | –
2 | CCCCCC1=CC(=O)C(C/C=C(\C)CCC=C(C)C)=C(O)C1=O [VCE-003, cannabigerol hydroxy-quinone] | – | – | – | – | – | – | – | – | – | – | – | – | – | – | – | – | – | electrophilic (Nrf2 activation) | activates the transcription factor Nrf2
